# Data from US20250066286A1, “COMPOSITIONS OF (Z)-ENDOXIFEN AND METHODS OF ENRICHMENT THEREOF” (Atossa Therapeutics, Inc., priority 2022, published 2025).
# Where two headings read alike, the source gives them in different places.
# Assays:
# [1] = Solvent mixture solubility tests of (Z)-endoxifen; format: physicochemical
# Protocol: To test the solubility of (Z)-endoxifen in varying conditions, 10 mg of (Z)-endoxifen was added to a stoppered tube, and 0.01 ml of the selected solvent was added (1000 mg/ml solution). The tube was shaken vigorously for 1 minute and then incubated at a constant temperature of 25.0° C. for 15 minutes. If the solid was not completed dissolved, the tube was shaken again and placed at the constant temperature of 25.0° C. for another 15 minutes. If the solid was completely dissolved at this step, it was considered to be very soluble in the selected solvent system. If the solid was not dissolved by this step, another 0.09 ml was added (yielding a 100 mg/ml solution) and an attempt to further dissolve the solid was made by the same steps of shaking and incubating twice over as described previously. If the solid was completely dissolved at this step, it was considered freely soluble. If the solid was not dissolved by this step another 0.2 ml was added (yielding a 33.3 mg/ml solution) and an attempt to further dissolve the solid was made by the same steps of shaking and incubating twice over as described previously. If the solid was completely dissolved at this step, it was considered soluble. If the solid was not dissolved by this step another, 0.7 ml was added (yielding a 10 mg/ml solution) and an attempt to further dissolve the solid was made by the same steps of shaking and incubating twice over as described previously. If the solid was completely dissolved at this step, it was considered sparingly soluble. If the solid was not dissolved by this step the sample was considered to be slightly soluble or very slightly soluble and the solution was heated until the boiling point of the solvent system (max 100° C.) under stirring with a rate of 0.5° C. per minute temperature ramp rate to verify the solubility at high temperatures. The hot solution was after cooled to room temperature with a cooling rate of 0.5° C. per minute to verify if the sample had precipitated after up to 18 hours under magnetic stirring. The same procedure was also used for the solvent mixture solubility tests. The concentrations investigated for the solvent mixture stability were 40 mg/ml and 100 mg/ml. Some solutions in the following example were precipitated by cooling of the solution from a temperature between 50-100° C. to between 10-25° C. at a rate ranging from −0.2 to −0.5° C./minute resulting in a precipitate.
# [2] = Slurries of (Z)-endoxifen in solvent mixtures (XRPD); format: physicochemical; conditions: for Output Crystallinity [high/low/SC/oriented]: 50° C., 1 d
# Protocol: Slurry experiments were performed with solvents with 50° C. (Z)-endoxifen was suspended in 500 μl of the solvent mixture to achieve the concentrations of 40 mg/ml or 100 mg/ml. The resultant solutions were stored at 50° C. for one day. For solvent mixtures which included acetone, the slurry was instead stored at 40° C. The suspensions were then recovered and filtered with a nylon filter (0.22 μm) during centrifugation at 4000 rpm for 3 minutes, and the collected solid (Z)-endoxifen was analyzed by XRPD as shown in FIG. 85-FIG. 91 and FIG. 1-FIG. 5.
# [3] = 2-propanol/tetrahydrofuran 95/5 v/v, 40 mg/mL
# [4] = acetone/2-propanol 67/33 v/v, 40 mg/mL
# [5] = acetone/tetrahydrofuran 95/5 v/v, 40 mg/mL
# [6] = ethyl acetate/2-propanol 50/50 v/v, 100 mg/mL
# [7] = ethyl acetate/tetrahydrofuran 95/5 v/v, 40 mg/mL
# [8] = heptane/2-propanol 50/50 v/v, 40 mg/mL
smiles,measurement,setting,value
"CC/C(=C(\c1ccc(O)cc1)c1ccc(OCCNC)cc1)c1ccccc1 [(Z)-endoxifen, (Z)-4-(1-(4-(2-(methylamino)ethoxy)phenyl)-2-phenylbut-1-enyl)phenol]",solubility,"[1]; 2-propanol/THF (95/5 v/v), organic solvent or mixture, thermodynamic from solid, 2-propanol/THF (95/5 v/v), high temperature, precipitated during cooling, read-out: Solubility",40 mg/mL
same,solubility,"[1]; 2-propanol/tetrahydrofuran 95/5 v/v, organic solvent or mixture, thermodynamic from solid, 2-propanol/tetrahydrofuran 95/5 v/v, 100 mg/mL, high temperature, read-out: Solubility HT (100 mg/mL): Sol. HT",< 100 mg/mL
same,Solubility HT (40 mg/mL): Clear point,[1]; [3],52.8 °C
same,Solubility HT (40 mg/mL): Cloudy point,[1]; [3],28.6 °C
same,Solubility HT (40 mg/mL): Sol. HT,"[1]; 2-propanol/tetrahydrofuran 95/5 v/v, 40 mg/mL, high temperature",YES
same,Solubility HT (40 mg/mL): Re-PPT,"[1]; 2-propanol/tetrahydrofuran 95/5 v/v, 40 mg/mL, on cooling",YES
same,solubility,"[1]; acetone/2-propanol 67/33 v/v, organic solvent or mixture, thermodynamic from solid, acetone/2-propanol 67/33 v/v, 100 mg/mL, high temperature, read-out: Solubility HT (100 mg/mL): Sol. HT",< 100 mg/mL
same,Solubility HT (40 mg/mL): Clear point,[1]; [4],36.8 °C
same,Solubility HT (40 mg/mL): Re-PPT after 18 hours at −20° C.,[1]; [4],YES
same,Solubility HT (40 mg/mL): Sol. HT,"[1]; acetone/2-propanol 67/33 v/v, 40 mg/mL, high temperature",YES
same,solubility,"[1]; acetone/2-propanol (63/37 v/v), high temperature, precipitated after 18 hours at −20° C.",soluble
same,solubility,"[1]; acetone/THF (95/5 v/v), high temperature, precipitated after 18 hours at −20° C.",soluble
same,solubility,"[1]; acetone/acetonitrile 50/50 v/v, organic solvent or mixture, thermodynamic from solid, acetone/acetonitrile 50/50 v/v, 40 mg/mL, high temperature, read-out: Solubility HT (40 mg/mL): Sol. HT",< 40 mg/mL
same,solubility,"[1]; acetone/acetonitrile 50/50 v/v, organic solvent or mixture, thermodynamic from solid, acetone/acetonitrile 50/50 v/v, 100 mg/mL, high temperature, read-out: Solubility HT (100 mg/mL): Sol. HT",< 100 mg/mL
same,solubility,"[1]; acetone/acetonitrile (50/50 v/v), organic solvent or mixture, thermodynamic from solid, acetone/acetonitrile (50/50 v/v), high temperature, read-out: Solubility",< 40 mg/mL
same,solubility,"[1]; acetone/ethyl acetate 50/50 v/v, organic solvent or mixture, thermodynamic from solid, acetone/ethyl acetate 50/50 v/v, 40 mg/mL, high temperature, read-out: Solubility HT (40 mg/mL): Sol. HT",< 40 mg/mL
same,solubility,"[1]; acetone/ethyl acetate 50/50 v/v, organic solvent or mixture, thermodynamic from solid, acetone/ethyl acetate 50/50 v/v, 100 mg/mL, high temperature, read-out: Solubility HT (100 mg/mL): Sol. HT",< 100 mg/mL
same,solubility,"[1]; acetone/ethyl acetate (50/50 v/v), organic solvent or mixture, thermodynamic from solid, acetone/ethyl acetate (50/50 v/v), high temperature, read-out: Solubility",< 40 mg/mL
same,solubility,"[1]; acetone/tetrahydrofuran 95/5 v/v, organic solvent or mixture, thermodynamic from solid, acetone/tetrahydrofuran 95/5 v/v, 100 mg/mL, high temperature, read-out: Solubility HT (100 mg/mL): Sol. HT",< 100 mg/mL
same,Solubility HT (40 mg/mL): Clear point,[1]; [5],47.5 °C
same,Solubility HT (40 mg/mL): Re-PPT after 18 hours at −20° C.,[1]; [5],YES
same,Solubility HT (40 mg/mL): Sol. HT,"[1]; acetone/tetrahydrofuran 95/5 v/v, 40 mg/mL, high temperature",YES
same,solubility,"[1]; butyl ethyl ether/methanol (50/50 v/v), organic solvent or mixture, thermodynamic from solid, butyl ethyl ether/methanol (50/50 v/v), high temperature, read-out: Solubility",40 to 100 mg/mL
same,solubility,"[1]; butyl methyl ether/methanol 50/50 v/v, organic solvent or mixture, thermodynamic from solid, butyl methyl ether/methanol 50/50 v/v, 100 mg/mL, high temperature, read-out: Solubility HT (100 mg/mL): Sol. HT",< 100 mg/mL
same,Solubility HT (40 mg/mL): Clear point,"[1]; butyl methyl ether/methanol 50/50 v/v, 40 mg/mL",31.8 °C
same,Solubility HT (40 mg/mL): Sol. HT,"[1]; butyl methyl ether/methanol 50/50 v/v, 40 mg/mL, high temperature",YES
same,Solubility HT (100 mg/mL): Clear point,[1]; [6],59.8 °C
same,Solubility HT (100 mg/mL): Cloudy point,[1]; [6],25 °C
same,Solubility HT (100 mg/mL): Sol. HT,"[1]; ethyl acetate/2-propanol 50/50 v/v, 100 mg/mL, high temperature",YES
same,Solubility HT (100 mg/mL): Re-PPT,"[1]; ethyl acetate/2-propanol 50/50 v/v, 100 mg/mL, on cooling",YES
same,solubility,"[1]; ethyl acetate/2-propanol (50/50 v/v), organic solvent or mixture, thermodynamic from solid, ethyl acetate/2-propanol (50/50 v/v), high temperature, precipitated during cooling, read-out: Solubility",100 mg/mL
same,solubility,"[1]; ethyl acetate/THF (95/5 v/v), organic solvent or mixture, thermodynamic from solid, ethyl acetate/THF (95/5 v/v), high temperature, precipitated during cooling, read-out: Solubility",40 mg/mL
same,solubility,"[1]; ethyl acetate/tetrahydrofuran 95/5 v/v, organic solvent or mixture, thermodynamic from solid, ethyl acetate/tetrahydrofuran 95/5 v/v, 100 mg/mL, high temperature, read-out: Solubility HT (100 mg/mL): Sol. HT",< 100 mg/mL
same,Solubility HT (40 mg/mL): Clear point,[1]; [7],56.3 °C
same,Solubility HT (40 mg/mL): Cloudy point,[1]; [7],51.3 °C
same,Solubility HT (40 mg/mL): Sol. HT,"[1]; ethyl acetate/tetrahydrofuran 95/5 v/v, 40 mg/mL, high temperature",YES
same,Solubility HT (40 mg/mL): Re-PPT,"[1]; ethyl acetate/tetrahydrofuran 95/5 v/v, 40 mg/mL, on cooling",YES
same,solubility,"[1]; heptane/2-propanol 50/50 v/v, organic solvent or mixture, thermodynamic from solid, heptane/2-propanol 50/50 v/v, 100 mg/mL, high temperature, read-out: Solubility HT (100 mg/mL): Sol. HT",< 100 mg/mL
same,Solubility HT (40 mg/mL): Clear point,[1]; [8],64.5 °C
same,Solubility HT (40 mg/mL): Cloudy point,[1]; [8],33.7 °C
same,Solubility HT (40 mg/mL): Sol. HT,"[1]; heptane/2-propanol 50/50 v/v, 40 mg/mL, high temperature",YES
same,Solubility HT (40 mg/mL): Re-PPT,"[1]; heptane/2-propanol 50/50 v/v, 40 mg/mL, on cooling",YES
same,solubility,"[1]; heptane/2-propanol (50/50 v/v), organic solvent or mixture, thermodynamic from solid, heptane/2-propanol (50/50 v/v), high temperature, precipitated during cooling, read-out: Solubility",40 mg/mL
same,solubility,"[1]; heptane/ethyl acetate 50/50 v/v, organic solvent or mixture, thermodynamic from solid, heptane/ethyl acetate 50/50 v/v, 40 mg/mL, high temperature, read-out: Solubility HT (40 mg/mL): Sol. HT",< 40 mg/mL
same,solubility,"[1]; heptane/ethyl acetate 50/50 v/v, organic solvent or mixture, thermodynamic from solid, heptane/ethyl acetate 50/50 v/v, 100 mg/mL, high temperature, read-out: Solubility HT (100 mg/mL): Sol. HT",< 100 mg/mL
same,solubility,"[1]; heptane/ethyl acetate (50/50 v/v), organic solvent or mixture, thermodynamic from solid, heptane/ethyl acetate (50/50 v/v), high temperature, read-out: Solubility",< 40 mg/mL
same,solubility,"[1]; heptane/toluene 50/50 v/v, organic solvent or mixture, thermodynamic from solid, heptane/toluene 50/50 v/v, 40 mg/mL, high temperature, read-out: Solubility HT (40 mg/mL): Sol. HT",< 40 mg/mL
same,solubility,"[1]; heptane/toluene 50/50 v/v, organic solvent or mixture, thermodynamic from solid, heptane/toluene 50/50 v/v, 100 mg/mL, high temperature, read-out: Solubility HT (100 mg/mL): Sol. HT",< 100 mg/mL
same,solubility,"[1]; heptane/toluene (50/50 v/v), organic solvent or mixture, thermodynamic from solid, heptane/toluene (50/50 v/v), high temperature, read-out: Solubility",< 40 mg/mL
same,solubility,"[1]; water/2-propanol 50/50 v/v, aqueous with cosolvent or surfactant or cyclodextrin, thermodynamic from solid, water/2-propanol 50/50 v/v, 40 mg/mL, high temperature, read-out: Solubility HT (40 mg/mL): Sol. HT",< 40 mg/mL
same,solubility,"[1]; water/2-propanol 50/50 v/v, aqueous with cosolvent or surfactant or cyclodextrin, thermodynamic from solid, water/2-propanol 50/50 v/v, 100 mg/mL, high temperature, read-out: Solubility HT (100 mg/mL): Sol. HT",< 100 mg/mL
same,solubility,"[1]; water/2-propanol (50/50 v/v), aqueous with cosolvent or surfactant or cyclodextrin, thermodynamic from solid, water/2-propanol (50/50 v/v), high temperature, read-out: Solubility",< 40 mg/mL
same,solubility,"[1]; water/THF (50/50 v/v), aqueous with cosolvent or surfactant or cyclodextrin, thermodynamic from solid, water/THF (50/50 v/v), high temperature, read-out: Solubility",< 40 mg/mL
same,solubility,"[1]; water/acetonitrile 50/50 v/v, aqueous with cosolvent or surfactant or cyclodextrin, thermodynamic from solid, water/acetonitrile 50/50 v/v, 40 mg/mL, high temperature, read-out: Solubility HT (40 mg/mL): Sol. HT",< 40 mg/mL
same,solubility,"[1]; water/acetonitrile 50/50 v/v, aqueous with cosolvent or surfactant or cyclodextrin, thermodynamic from solid, water/acetonitrile 50/50 v/v, 100 mg/mL, high temperature, read-out: Solubility HT (100 mg/mL): Sol. HT",< 100 mg/mL
same,solubility,"[1]; water/acetonitrile (50/50 v/v), aqueous with cosolvent or surfactant or cyclodextrin, thermodynamic from solid, water/acetonitrile (50/50 v/v), high temperature, read-out: Solubility",< 40 mg/mL
same,solubility,"[1]; water/tetrahydrofuran 95/5 v/v, aqueous with cosolvent or surfactant or cyclodextrin, thermodynamic from solid, water/tetrahydrofuran 95/5 v/v, 40 mg/mL, high temperature, read-out: Solubility HT (40 mg/mL): Sol. HT",< 40 mg/mL
same,solubility,"[1]; water/tetrahydrofuran 95/5 v/v, aqueous with cosolvent or surfactant or cyclodextrin, thermodynamic from solid, water/tetrahydrofuran 95/5 v/v, 100 mg/mL, high temperature, read-out: Solubility HT (100 mg/mL): Sol. HT",< 100 mg/mL
same,Output Crystallinity [high/low/SC/oriented],"[2]; SLHT-1D-H2O/THF(40 mg/ml), FIG. 3: water/tetrahydrofuran 95/5, 40 mg/mL",low
same,Output Crystallinity [high/low/SC/oriented],"[2]; SLHT-1D-HEP/TOL(100 mg/ml), FIG. 89: heptane/toluene 50/50, 100 mg/mL",low
same,Polymorphic form recovered (XRPD),"[2]; all solvent mixture slurries, 40 or 100 mg/ml, 50° C. (40° C. with acetone), one day",Form I with varying degrees of purity
